After the bases stand the sugars from the 5' end (letter, count) and the backbone: PS all phosphorothioate, else s phosphorothioate and o phosphodiester by linkage. Methylation of C is not given here. e = 2'-O-(2-methoxyethyl) (MOE); k = constrained ethyl (cEt); d = 2'-deoxy (DNA); m = 2'-O-methyl
Target: HSD17B13
Conditions: ASO, HepaRG

AGTTAGTATAGTTATC (sugars k3 d1 m1 d8 k3, PS)
target mRNA inhibition (1 µM): 42%

GATATACGATGGAACA (sugars k3 d10 k3, PS)
target mRNA inhibition (1 µM): 46%

TACATTAGCAAGCTAA (sugars k3 d10 k3, PS)
target mRNA inhibition (1 µM): 29%

TGCAUCTTAAGATACC (sugars k3 d1 m1 d8 k3, PS)
target mRNA inhibition (1 µM): 51%

CTTAUGTAATAGCCAG (sugars k3 d1 m1 d8 k3, PS)
target mRNA inhibition (0.02 µM): 0% | target mRNA inhibition (0.078 µM): 0% | target mRNA inhibition (0.313 µM): 34% | target mRNA inhibition (1 µM): 75% | target mRNA inhibition (1.25 µM): 65% | target mRNA inhibition (5 µM): 91%

TAATTTTCGGGTTCTT (sugars k3 d10 k3, PS)
target mRNA inhibition (1 µM): 40%

AGACCTCTGTGAAAGC (sugars k3 d10 k3, PS)
target mRNA inhibition (1 µM): 50%

TTATAACTACAAGAGG (sugars k3 d1 m1 d8 k3, PS)
target mRNA inhibition (1 µM): 58%

AACCTAATAACTACAT (sugars k3 d10 k3, PS)
target mRNA inhibition (1 µM): 0%

GATACTATTCTCCAAC (sugars k3 d10 k3, PS)
target mRNA inhibition (1 µM): 44%

ACAGAGGAGTTTGCAG (sugars k3 d10 k3, PS)
target mRNA inhibition (1 µM): 37%

TCAAGACATTCTAGCC (sugars k3 d10 k3, PS)
target mRNA inhibition (1 µM): 79%

TGTCAGAGACTCTGTG (sugars k3 d10 k3, PS)
target mRNA inhibition (1 µM): 39%

TTAAUGCCACCCTACC (sugars k3 d1 m1 d8 k3, PS)
target mRNA inhibition (1 µM): 8%

CCAATTATGAATCTGC (sugars k3 d10 k3, PS)
target mRNA inhibition (1 µM): 61%

CTTAAGGATCATTGCA (sugars k3 d10 k3, PS)
target mRNA inhibition (1 µM): 29%

TGCGAGAAATCTAAGA (sugars k3 d10 k3, PS)
target mRNA inhibition (1 µM): 50%

CTTGACTAAGGAGCTA (sugars k3 d10 k3, PS)
target mRNA inhibition (1 µM): 24%

GATAGTCCATGCAAAA (sugars k3 d10 k3, PS)
target mRNA inhibition (1 µM): 64%

CATCTACATGGATCCA (sugars k3 d10 k3, PS)
target mRNA inhibition (1 µM): 63%

AATCTAGCAACCTCTA (sugars k3 d10 k3, PS)
target mRNA inhibition (1 µM): 22%

CAGCATTGATTCGAAA (sugars k3 d1 m1 d8 k3, PS)
target mRNA inhibition (1 µM): 37%

AAACATCTCTGGGACC (sugars kkdddddddddkekek, PS)
target mRNA inhibition (1 µM): 36%

TCTAAGTTAGCCCCCA (sugars k3 d1 m1 d8 k3, PS)
target mRNA inhibition (1 µM): 7%

GCAAGGATACCTGAAA (sugars k3 d10 k3, PS)
target mRNA inhibition (1 µM): 67%

ACCCAGTATTCACAAA (sugars k3 d10 k3, PS)
target mRNA inhibition (1 µM): 10%

ATTCTGTGGCATGGCT (sugars k3 d9 k3 e1, PS)
target mRNA inhibition (1 µM): 68%

GAAACTTGATCTCTTA (sugars k3 d9 k3 e1, PS)
target mRNA inhibition (0.02 µM): 0% | target mRNA inhibition (0.078 µM): 11% | target mRNA inhibition (0.313 µM): 60% | target mRNA inhibition (1 µM): 79% | target mRNA inhibition (1.25 µM): 82% | target mRNA inhibition (5 µM): 90%

GCATTAATGCCACCCT (sugars k3 d9 k3 e1, PS)
target mRNA inhibition (1 µM): 51%

AGTCUTAAACCTTCCC (sugars k3 d1 m1 d8 k3, PS)
target mRNA inhibition (1 µM): 52%

GCATTGAAAAGATGTA (sugars k3 d10 k3, PS)
target mRNA inhibition (1 µM): 0%

TACCAGAGCATTCATC (sugars k3 d10 k3, PS)
target mRNA inhibition (1 µM): 55%

GTAATAGGCAGTAAAG (sugars k3 d10 k3, PS)
target mRNA inhibition (1 µM): 77%

AGCTTTTGTCCACCTT (sugars k3 d10 k3, PS)
target mRNA inhibition (1 µM): 57%

GGTAAGTATTCCATCT (sugars k3 d10 k3, PS)
target mRNA inhibition (1 µM): 12%

ACAGTCTTAAACCTTC (sugars kkdddddddddkekek, PS)
target mRNA inhibition (1 µM): 46%

TGTTAGGACCCAGTCT (sugars k3 d10 k3, PS)
target mRNA inhibition (1 µM): 51%

TATAGACTGGGTAGGA (sugars k3 d1 m1 d8 k3, PS)
target mRNA inhibition (1 µM): 30%

TATTTCGCTACTGTAG (sugars k3 d10 k3, PS)
target mRNA inhibition (1 µM): 48%

TGTGUTCTTGTTGATA (sugars k3 d1 m1 d8 k3, PS)
target mRNA inhibition (1 µM): 41%

CAGAATAGAGTTGCAC (sugars k3 d10 k3, PS)
target mRNA inhibition (1 µM): 50%

TAAGGAGTAGTGGAGC (sugars k3 d10 k3, PS)
target mRNA inhibition (1 µM): 18%

ACTACAAGAGGTTATT (sugars k3 d10 k3, PS)
target mRNA inhibition (1 µM): 46%

TAGCAAAACACTTGCT (sugars k3 d10 k3, PS)
target mRNA inhibition (1 µM): 21%

CAGACTTCTTACGACT (sugars k3 d10 k3, PS)
target mRNA inhibition (1 µM): 33%

TGGTAACGGTGATCAA (sugars k3 d10 k3, PS)
target mRNA inhibition (0.02 µM): 14% | target mRNA inhibition (0.078 µM): 28% | target mRNA inhibition (0.313 µM): 58% | target mRNA inhibition (1 µM): 74% | target mRNA inhibition (1.25 µM): 76% | target mRNA inhibition (5 µM): 88%

CCTACCAAGAGGGTTT (sugars k3 d10 k3, PS)
target mRNA inhibition (1 µM): 34%

GCAAGCCAACAGAGAG (sugars kkdddddddddkekek, PS)
target mRNA inhibition (1 µM): 12%

TCTTAGCTGTGCACTC (sugars k3 d1 m1 d8 k3, PS)
target mRNA inhibition (1 µM): 71%

TCTAAACTAGTGGTAA (sugars k3 d10 k3, PS)
target mRNA inhibition (1 µM): 24%

GACAGACCAAGTAGCT (sugars k3 d10 k3, PS)
target mRNA inhibition (1 µM): 39%

ACTCTATTGATTGGCT (sugars k3 d10 k3, PS)
target mRNA inhibition (1 µM): 57%

AATCCCAACCAAACTT (sugars k3 d1 m1 d8 k3, PS)
target mRNA inhibition (1 µM): 7%

CTGCGCACATATTTTA (sugars k3 d10 k3, PS)
target mRNA inhibition (0.02 µM): 0% | target mRNA inhibition (0.078 µM): 0% | target mRNA inhibition (0.313 µM): 7% | target mRNA inhibition (1 µM): 92% | target mRNA inhibition (1.25 µM): 52% | target mRNA inhibition (5 µM): 74%

TGTGGCATGGCTACAG (sugars k3 d10 k3, PS)
target mRNA inhibition (1 µM): 24%

ATATAGCCCTTTCCCC (sugars k3 d10 k3, PS)
target mRNA inhibition (1 µM): 26%

TTTCATAGCTCACTTA (sugars k3 d10 k3, PS)
target mRNA inhibition (1 µM): 16%

GAATGCTACTTGAACA (sugars k3 d9 k3 e1, PS)
target mRNA inhibition (1 µM): 56%

AACTCCGTTATAAGTT (sugars k3 d10 k3, PS)
target mRNA inhibition (1 µM): 11%

AGAAATCTAAGAACCC (sugars k3 d10 k3, PS)
target mRNA inhibition (1 µM): 25%

ATCCCCTAAGTTATTA (sugars k3 d10 k3, PS)
target mRNA inhibition (1 µM): 13%

ATTAGAAGTCAGCCCA (sugars k3 d10 k3, PS)
target mRNA inhibition (1 µM): 42%

TATTATGTGATTGAGT (sugars k3 d1 m1 d8 k3, PS)
target mRNA inhibition (1 µM): 28%

CTGCTAGTGCCAAACC (sugars k3 d9 k3 e1, PS)
target mRNA inhibition (1 µM): 67%

CCATCTATCAGACTTC (sugars kkdddddddddkekek, PS)
target mRNA inhibition (1 µM): 52%

TTGTAATCTTGAGGCA (sugars k3 d10 k3, PS)
target mRNA inhibition (1 µM): 27%

ATAGAGTCGGTCACCT (sugars k3 d9 k3 e1, PS)
target mRNA inhibition (1 µM): 67%

CAGTAGATTTGGTAGA (sugars k3 d10 k3, PS)
target mRNA inhibition (1 µM): 49%

TTAAACTCCAATGTGT (sugars k3 d10 k3, PS)
target mRNA inhibition (1 µM): 36%

AGATGGGCAAGGCCAC (sugars k3 d10 k3, PS)
target mRNA inhibition (1 µM): 59%

AGCTTAAACTCCAATG (sugars k3 d10 k3, PS)
target mRNA inhibition (1 µM): 40%

GATTGAGTTCTCCACT (sugars k3 d10 k3, PS)
target mRNA inhibition (1 µM): 45%

ATTGTCTAAACATCTC (sugars k3 d9 k3 e1, PS)
target mRNA inhibition (1 µM): 71%

TCCAGTAGGTGTGTTT (sugars k3 d10 k3, PS)
target mRNA inhibition (1 µM): 47%

TCAACTAAACATGACA (sugars k3 d10 k3, PS)
target mRNA inhibition (0.02 µM): 0% | target mRNA inhibition (0.078 µM): 0% | target mRNA inhibition (0.313 µM): 42% | target mRNA inhibition (1 µM): 77% | target mRNA inhibition (1.25 µM): 69% | target mRNA inhibition (5 µM): 89%

ATAGGGAGACCATGCT (sugars k3 d10 k3, PS)
target mRNA inhibition (1 µM): 64%

GGAAATATAGAGGGTC (sugars k3 d10 k3, PS)
target mRNA inhibition (1 µM): 50%

TATATGAGGTCTGTAT (sugars k3 d10 k3, PS)
target mRNA inhibition (1 µM): 42%

TAGCTAAGGGAGAGTG (sugars k3 d10 k3, PS)
target mRNA inhibition (1 µM): 9%

CCAAGGCTTATGAAGT (sugars k3 d10 k3, PS)
target mRNA inhibition (1 µM): 27%

GCTACAGATTGGAATG (sugars k3 d10 k3, PS)
target mRNA inhibition (1 µM): 47%

AGATTAGTCTTGATGT (sugars k3 d10 k3, PS)
target mRNA inhibition (1 µM): 63%

CAAAAGTGTCCTCGAT (sugars k3 d10 k3, PS)
target mRNA inhibition (1 µM): 5%

CAACGACTCCAAGTAG (sugars k3 d10 k3, PS)
target mRNA inhibition (1 µM): 0%

GAGTTGCACCGTTTTG (sugars k3 d9 k3 e1, PS)
target mRNA inhibition (1 µM): 62%

TAGAGGGTCCACTTTT (sugars k3 d10 k3, PS)
target mRNA inhibition (1 µM): 36%

AAACAAGAGGATAGTC (sugars kkdddddddddkekek, PS)
target mRNA inhibition (1 µM): 52%

CTTGAACAGTCTTAAA (sugars k3 d10 k3, PS)
target mRNA inhibition (1 µM): 39%

AATATTGAGGCACTGG (sugars k3 d10 k3, PS)
target mRNA inhibition (1 µM): 54%

TCAGATCCCGTTCTTG (sugars k3 d10 k3, PS)
target mRNA inhibition (1 µM): 59%

GACATGAGGTTTTGAT (sugars k3 d10 k3, PS)
target mRNA inhibition (1 µM): 52%

AGAGGATAGTCCATGC (sugars k3 d10 k3, PS)
target mRNA inhibition (0.02 µM): 12% | target mRNA inhibition (0.078 µM): 19% | target mRNA inhibition (0.313 µM): 51% | target mRNA inhibition (1 µM): 74% | target mRNA inhibition (1.25 µM): 73% | target mRNA inhibition (5 µM): 97%

CACTAAAGGTTTCTGT (sugars k3 d10 k3, PS)
target mRNA inhibition (1 µM): 56%

CAGATTATTATGTGAT (sugars kkdddddddddkekek, PS)
target mRNA inhibition (1 µM): 31%

AATTACTCCGTTCTGC (sugars k3 d10 k3, PS)
target mRNA inhibition (1 µM): 6%

TTAAGATACCCAGGTT (sugars k3 d1 m1 d8 k3, PS)
target mRNA inhibition (1 µM): 30%

TATTCCCAACGCAACA (sugars k3 d10 k3, PS)
target mRNA inhibition (1 µM): 62%

TGTCCAGAAGTATGTG (sugars k3 d10 k3, PS)
target mRNA inhibition (1 µM): 0%

GATGTTGACCTCAAAT (sugars k3 d10 k3, PS)
target mRNA inhibition (1 µM): 0%

From the OligoGym collection
